Values quoted from earlier work in patent US9326930B2, “Calcium sequestration compositions and methods of treating skin pigmentation disorders and conditions” (NEOCUTIS S.A., priority 2009, dated 2016).

Tests used:
[1] = test system: B16F0 melanoma cells; details: L-forms, not D-forms
[2] = test system: melanocyte-keratinocyte co-cultures; details: intracellular calcium in keratinocytes chelated
[3] = biological target: melanocortin receptor 1 (MC1R) (Homo sapiens, UniProt Q01726)
melanocortin receptor 1 (MC1R), sequence (Q01726 whole entry, species assumed): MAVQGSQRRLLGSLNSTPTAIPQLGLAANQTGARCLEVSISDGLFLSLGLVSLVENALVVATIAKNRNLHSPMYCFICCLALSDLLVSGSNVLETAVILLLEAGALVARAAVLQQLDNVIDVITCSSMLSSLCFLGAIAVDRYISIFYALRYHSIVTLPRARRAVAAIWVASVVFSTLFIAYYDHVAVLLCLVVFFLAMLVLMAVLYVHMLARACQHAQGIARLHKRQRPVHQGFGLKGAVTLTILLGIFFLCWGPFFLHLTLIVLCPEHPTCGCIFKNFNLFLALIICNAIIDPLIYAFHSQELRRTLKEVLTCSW

| Compound | effect on pigmentation [1] | further results |
| --- | --- | --- |
| C[C@H](N)C(=O)O [L-alanine] | hypopigmenting effects | – |
| CC[C@H](C)[C@H](N)C(=O)O [L-isoleucine] | hypopigmenting effects | – |
| CC(C)C[C@H](N)C(=O)O [L-leucine] | hypopigmenting effects | – |
| CC(=O)OCOC(=O)CN(CC(=O)OCOC(C)=O)c1ccccc1OCCOc1ccccc1N(CC(=O)OCOC(C)=O)CC(=O)OCOC(C)=O [BAPTA-AM, 1,2-bis-(o-aminophenoxy)-ethane-N,N,N′,N′-tetraacetic acid tetra-acetoxymethyl ester] | – | melanin transfer [2]: melanin transfer was inhibited |
| C=CCCCCCCCCC(=O)N[C@@H](Cc1ccccc1)C(=O)O [undecylenoyl phenylalanine] | – | affinity to MC1R [3]: affinity towards MC1R; action on α-MSH ([3]; in vitro): antagonist of α-MSH |
| NCC(=O)O [glycine] | hypopigmenting effects | – |
